According to US5344843A, “Cat-1 inhibitors, pharmaceutical compositions and methods of use” (Hoffman-La Roche Inc., priority 1992, dated 1994):
Counter-ions that a name gives are not always drawn. Like-named read-outs stand apart in the source and are kept apart here.

Biological target: T1, CAT-1 (carnitine acyltransferase 1) (Rattus norvegicus, UniProt Q63704)
T1 construct: This preparation is used as the isolated mitochondrial preparation; from tissue; host or cells: rat heart (atria removed), isolated mitochondria
T1 sequence (Q63704 1-772): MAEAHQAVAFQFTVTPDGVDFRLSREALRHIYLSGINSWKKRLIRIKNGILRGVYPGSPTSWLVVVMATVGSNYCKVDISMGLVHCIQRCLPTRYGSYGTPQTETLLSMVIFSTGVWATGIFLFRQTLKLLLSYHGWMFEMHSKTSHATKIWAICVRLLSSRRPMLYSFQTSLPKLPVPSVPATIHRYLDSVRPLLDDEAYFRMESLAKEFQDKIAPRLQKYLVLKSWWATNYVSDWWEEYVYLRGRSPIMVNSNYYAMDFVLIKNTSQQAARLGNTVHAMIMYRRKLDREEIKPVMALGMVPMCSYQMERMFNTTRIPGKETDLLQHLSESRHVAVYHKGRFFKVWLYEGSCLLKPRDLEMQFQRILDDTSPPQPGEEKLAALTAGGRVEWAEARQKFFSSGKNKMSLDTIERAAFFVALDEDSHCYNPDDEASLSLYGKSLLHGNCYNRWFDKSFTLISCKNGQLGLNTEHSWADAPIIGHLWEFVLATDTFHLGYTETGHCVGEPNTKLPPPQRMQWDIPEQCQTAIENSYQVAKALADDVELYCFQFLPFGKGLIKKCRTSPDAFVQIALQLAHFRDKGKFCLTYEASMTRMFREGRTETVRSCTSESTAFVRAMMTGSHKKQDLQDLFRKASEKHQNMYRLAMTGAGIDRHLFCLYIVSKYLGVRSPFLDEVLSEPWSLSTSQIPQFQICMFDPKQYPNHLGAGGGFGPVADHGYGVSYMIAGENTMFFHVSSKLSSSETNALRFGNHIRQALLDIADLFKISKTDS
Assay: Primary Screen--Inhibition of CAT-1 in isolated mitochondria
Format: biochemical
Design: inhibition: dose or concentration left out as unconfirmed

[1] = rat heart mitochondria, reduction of palmitoyl carnitine formation by 50%, read-out: Primary Screen IC50

Compound	IC50 [1] [nM]	also measured
CC(C)(C)c1cc(C(=O)CCCCOc2ccc(C(=O)C(=O)O)cc2)cc(C(C)(C)C)c1O [Example 266, 4-[5-[3,5-bis(1,1-dimethylethyl)-4-hydroxyphenyl]-5-oxopentyloxy]-alpha-oxobenzeneacetic acid]	–	inhibition at 10 µM (@ 10 μM): 48%
CCC(C)(C)C(=O)Oc1cccc2ccc(OCCOc3ccc(C(=O)C(=O)OC)cc3)cc12 [Example 133, 4-[[2-[8-(2,2-dimethyl-1-oxobutoxy)-2-naphthalenyloxy]ethyl]oxy]-alpha-oxobenzeneacetic acid methyl ester]	35000	–
O=C(O)C(=O)c1ccc(OCOc2ccccc2)cc1 [Example 67, alpha-oxo-4-[[(phenoxy)methyl]oxy]benzeneacetic acid]	15000	–
O=C(O)C(=O)c1cc(F)c(OCCOc2ccc3ccccc3c2)c(F)c1 [Example 203, 3,5-difluoro-4-[2-(2-naphthalenyloxy)ethoxy]-alpha-oxobenzeneacetic acid]	–	inhibition: 37%
O=C(O)C(=O)c1ccc(OCC(=O)N2CCN(CCc3ccccc3C(F)(F)F)CC2)cc1 [Example 253, alpha-oxo-4-[2-oxo-2-[4-[2-[2-(trifluoromethyl)phenyl]ethyl]-1-piperazinyl]ethoxy]benzeneacetic acid (1:1) hydrochloride]	–	IC50: 500 nM
O=C(O)C(=O)c1ccc(OCCOc2ccc(-c3ccccc3)cc2)cc1 [Example 57, 4-[[2-[4-(1,1'-biphenyl)oxy]ethyl]oxy]-alpha-oxobenzeneacetic acid]	5000	–
O=C(O)C(=O)c1ccc(OCCCCSc2ccc3ccccc3c2)cc1 [Example 92, 4-[[4-(2-naphthalenylthio)butyl]oxy]-alpha-oxobenzeneacetic acid]	3500	–
NS(=O)(=O)c1ccc(OCCOc2ccc(C(=O)C(=O)O)cc2)cc1 [Example 53, 4-[[2-[4-(aminosulfonyl)phenoxy]ethyl]oxy]-alpha-oxobenzeneacetic acid]	4000	–
O=C(O)C(=O)c1ccc(OCC(=O)N2CCOCC2)cc1 [Example 255, 4-[2-(4-morpholinyl)-2-oxoethoxy]-alpha-oxobenzeneacetic acid]	12000	–
O=C(O)C(=O)c1ccc(OCCCCc2ccncc2)cc1 [Example 125, alpha-oxo-4-[4-(4-pyridinyl)butoxy]benzeneacetic acid]	2000	–
O=C(O)C(=O)c1ccc(OCCOc2cc3ccccc3c3ccccc23)cc1 [Example 110, alpha-oxo-4-[[2-(9-phenanthrenyloxy)ethyl]oxy]benzeneacetic acid]	–	IC50: 100 nM
O=C(C(=O)N(CCO)CCO)c1ccc(OCCOc2ccc3ccccc3c2)cc1 [Example 163, N,N-bis(2-hydroxyethyl)-4-[[2-(2-naphthalenyloxy)ethyl]oxy]-alpha-oxobenzeneacetamide]	3500	–
O=C(O)C(=O)c1c(Cl)cc(OCCOc2ccc3ccccc3c2)cc1Cl [Example 191, 2,6-dichloro-4-[2-(2-naphthalenyloxy)ethoxy]-alpha-oxobenzeneacetic acid]	6700	–
O=C(O)C(=O)c1ccc(OCCCCc2cccnc2)cc1 [Example 123, alpha-oxo-4-[4-(3-pyridinyl)butoxy]benzeneacetic acid]	1500	–
Cc1cc(C)c(C(=O)COc2ccc(C(=O)C(=O)O)cc2)c(C)c1 [Example 292, 4-[2-oxo-2-(2,4,6-trimethylphenyl]ethoxy]-alpha-oxobenzeneacetic acid]	4500	–
CN(C)/N=C(\C(=O)O)c1ccc(OCCOc2ccc3ccccc3c2)cc1 [Example 321, (Z)-alpha-(dimethylhydrazono)-4-[2-(2-naphthalenyloxy)ethoxy]benzeneaceticacid]	6500	–

The next lines start with results.

IC50 [1] [nM]	Compound	also measured
3500	CC1(C)OCC(COC(=O)C(=O)c2ccc(OCCOc3ccc4ccccc4c3)cc2)O1 (racemic) [Example 169, rac.-4-[[2-(2-naphthalenyloxy)ethyl]oxy]-alpha-oxobenzeneacetic acid (2,2-dimethyl-1,3-dioxolan-4-yl)methyl ester]	–
1000	O=C(O)C(=O)c1ccc(OCCOc2cccc(F)c2)cc1 [Example 41, 4-[[2-(3-fluorophenoxy)ethyl]oxy]-alpha-oxobenzeneacetic acid]	–
3000	COc1cc(OCCOc2ccc(C(=O)C(=O)O)cc2)cc(OC)c1OC [Example 65, 4-[[2-(3,4,5-trimethoxyphenoxy)ethyl]oxy]-alpha-oxobenzeneacetic acid]	–
2000	O=C(O)C(=O)c1ccc(OCCOCCOc2ccccc2)cc1 [Example 77, 4-[[2-[[2-(phenoxy)ethyl]oxy]ethyl]oxy]-alpha-oxobenzeneacetic acid]	–
250	O=C(O)C(=O)c1ccc(OC/C=C/c2ccc(F)cc2)cc1 [Example 29, (E)-4-[[3-(4-fluorophenyl)-2-propenyl]oxy]-alpha-oxobenzeneacetic acid]	–
2000	COc1ccc(OCCOc2ccc(C(=O)C(=O)O)cc2)cc1 [Example 61, 4-[[2-(4-methoxyphenoxy)ethyl]oxy]-alpha-oxobenzeneacetic acid]	–
2800	O=C(O)C(=O)c1ccc(OCCOC2CCc3ccccc3C2)cc1 (racemic) [Example 114, rac.-alpha-oxo-4-[[2-(1,2,3,4-tetrahydro-2-naphthalenyloxy)ethyl]oxy]benzeneacetic acid]	–
1800	CN(C)/N=C(/C(=O)O)c1ccc(OCCOc2ccc3ccccc3c2)cc1 [Example 320, (E)-alpha-(dimethylhydrazono)-4-[2-(2-naphthalenyloxy)ethoxy]benzeneaceticacid]	–
960	O=C(O)C(=O)c1ccc(OCCOc2ccnc3ccccc23)cc1 [Example 131, alpha-oxo-4-[[2-(4-quinolyloxy)ethyl]oxy]benzeneacetic acid]	–
500	O=C(O)/C(=N\OCc1ccccc1)c1ccc(OCCOc2ccc3ccccc3c2)s1 [Example 316, (E)-5-[2-(2-naphthalenyloxy)ethoxy]-alpha-[(phenylmethoxy)imino]-2-thiopheneacetic acid]	–
250	O=C(O)C(=O)c1ccc(OCCOc2cc3ccccc3cc2OCCO)cc1 [Example 118, 4-[[2-[3-(2-hydroxyethoxy)-2-naphthalenyloxy]ethyl]oxy]-alpha-oxobenzeneacetic acid]	–
140	O=C(O)/C(=N/OCc1ccccc1)c1ccc(OCCOc2ccc3ccccc3c2)s1 [Example 315, (Z)-5-[2-(2-naphthalenyloxy)ethoxy]-alpha-[(phenylmethoxy)imino]-2-thiopheneacetic acid]	–
2000	O=C(O)C(=O)c1ccc(OCCOCCOc2ccc(C(=O)C(=O)O)cc2)cc1 [Example 78, 4,4'-[oxybis(2,1-ethanedienyloxy)]bis(alpha-oxobenzeneacetic acid)]	–
220	O=C(O)C(=O)c1ccc(OCc2ccc3ccccc3c2)cc1 [Example 155, 4-[(2-naphthalenyl)methoxy]-alpha-oxobenzeneacetic acid]	–
800	O=C(O)C(=O)c1ccc(OCCOc2ccc(F)cc2)cc1 [Example 43, 4-[[2-(4-fluorophenoxy)ethyl]oxy]-alpha-oxobenzeneacetic acid]	–
440	O=C(O)C(=O)c1ccc(OCCOc2ccc3ccncc3c2)cc1 [Example 129, 4-[[2-(7-isoquinolyloxy)ethyl]oxy]-alpha-oxobenzeneacetic acid (5:2) molar hydrate]	–
